Values quoted from earlier work, collected in patent publication US10577339B2, “Method for manufacturing furan-2,5-dicarboxylic acid (FDCA) from a salt solution” (PURAC BIOCHEM BV, priority 2015, dated 2020).

Conditions: at 40° C.

saturation concentration: 32.8%
SMILES: O=S(=O)([O-])[O-].[Na+].[Na+] [Na2SO4, sodium sulphate]
